Data on one compound can be found in patent publication US10875852B2, “Heteroaromatic compounds as BTK inhibitors” (Boehringer Ingelheim International GmbH, priority 2012, dated 2020).

In this experiment the target is full-length human His-tagged BTK (Homo sapiens (Human), UniProt Q06187). Nature of the experiment: BTK HTRF assay (Cisbio KinEASE-TK). As to conditions: 6 nM BTK, 30 uM ATP, 15 min preincubation. Type of experiment: biochemical.

As usually defined, the IC50 is the concentration that inhibits the measured activity by half. Lower therefore signals higher potency.

full-length human His-tagged BTK, sequence (Q06187 whole entry): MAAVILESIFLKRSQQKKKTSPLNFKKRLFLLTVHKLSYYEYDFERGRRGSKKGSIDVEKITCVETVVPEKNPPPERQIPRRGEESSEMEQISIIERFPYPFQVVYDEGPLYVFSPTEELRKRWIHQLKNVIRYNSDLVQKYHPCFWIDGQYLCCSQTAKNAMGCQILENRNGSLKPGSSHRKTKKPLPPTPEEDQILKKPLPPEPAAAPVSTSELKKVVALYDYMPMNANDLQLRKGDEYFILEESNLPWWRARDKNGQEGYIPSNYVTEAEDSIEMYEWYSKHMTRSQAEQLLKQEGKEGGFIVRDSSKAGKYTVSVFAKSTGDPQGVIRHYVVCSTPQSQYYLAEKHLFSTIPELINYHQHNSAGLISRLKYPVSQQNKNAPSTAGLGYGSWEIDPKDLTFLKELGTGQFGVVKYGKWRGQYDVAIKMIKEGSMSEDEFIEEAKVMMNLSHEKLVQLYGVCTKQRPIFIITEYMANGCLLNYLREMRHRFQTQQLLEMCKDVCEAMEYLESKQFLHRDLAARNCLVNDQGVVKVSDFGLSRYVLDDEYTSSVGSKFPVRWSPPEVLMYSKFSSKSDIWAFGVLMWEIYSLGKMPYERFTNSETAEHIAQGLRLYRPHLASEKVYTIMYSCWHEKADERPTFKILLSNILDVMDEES
Procedure: An HTRF assay (Cisbio KinEASE-TK cat #62TK0PEC) was performed to quantitate the ability of test compounds to inhibit BTK mediated phosphorylation of substrate. Assays were assembled in 384 well plates where 6 nM of full-length human His-tagged BTK (Life Technologies cat # PV3587) and test compound at varying concentrations were preincubated for 15 minutes at 28° C. Then, 1 uM of TK substrate-biotin and 30 uM ATP were added and incubated for an additional 30 minutes at 28° C.

The compound `C=CC(=O)N1CC[C@]2(C1)C[C@H](n1nc(-c3ccc(OC)cc3Cl)c(C(N)=O)c1N)C2` [Example 159] showed an IC50 of 20 nM.
